According to US20100029706A1, “HYDROGENATED PYRIDO[4,3-b]INDOLES FOR THE TREATMENT OF OXIDATIVE STRESS” (Edison Parmaceuticals, Inc. a Delaware Corporation, priority 2008, published 2010):
Like-named read-outs stand apart in the source and are kept apart here.

Experiments:
Type in all cases: cell-based
[1] = test system: human dermal fibroblasts from Parkinson's Disease patients; test: Rescue of fibroblasts from Parkinson's Disease patients from oxidative stress (similar to Example A); conditions: PD fibroblasts AG20439, BSO-stressed, read-out: EC50, protection against Parkinson's
Procedure: [Worded in the source for another cell line; this cell line is reported under the same test.] (§1) An initial screen was performed to identify compounds effective for the amelioration of redox disorders. Test samples, 4 reference compounds (Idebenone, decylubiquinone, Trolox and α-tocopherol acetate), and solvent controls were tested for their ability to rescue FRDA fibroblasts stressed by addition of L-buthionine-(S,R)-sulfoximine (BSO), as described in Jauslin et al., Hum. Mol. Genet. 11(24):3055 (2002), Jauslin et al., FASEB J. 17:1972-4 (2003), and International Patent Application WO 2004/003565. […] This specific BSO-mediated cell death can be prevented by administration of antioxidants or molecules involved in the antioxidant pathway, such as α-tocopherol, selenium, or small molecule glutathione peroxidase mimetics. However, antioxidants differ in their potency, i.e. the concentration at which they are able to rescue BSO-stressed FRDA fibroblasts.
(§2) Test samples were screened according to the following protocol: • A culture with FRDA fibroblasts was started from a 1 ml vial with approximately 500,000 cells stored in liquid nitrogen. […]
(§3) 100 μl of PBS containing 1.2 μM Calcein AM were then added to each well. […] After that time the PBS was discarded, the plate gently tapped on a paper towel and fluorescence (excitation/emission wavelengths of 485 nm and 525 nm, respectively) was read on a Gemini fluorescence reader. […]

[2] = test system: human dermal fibroblasts from LHON patients; test: Rescue of fibroblasts from LHON patients from oxidative stress (as Example A); conditions: Fibroblast, LHON fibroblasts GM03858, BSO-stressed, read-out: EC50, protection against LHON
Procedure: [Worded in the source for another cell line; this cell line is reported under the same test.] as §1, §2, §3

[3] = test system: human dermal fibroblasts from CoQ10 deficient patients harboring a CoQ2 mutation; test: Rescue of fibroblasts from CoQ10 deficient patients from oxidative stress (similar to Example A); conditions: BSO-stressed, read-out: EC50, protection against CoQ10
Procedure: [Worded in the source for another cell line; this cell line is reported under the same test.] as §1
Test samples were screened according to the following protocol: • A culture with FRDA fibroblasts was started from a 1 ml vial with approximately 500,000 cells stored in liquid nitrogen. Cells were propagated in 10 cm cell culture dishes by splitting every third day in a ratio of 1:3 until nine plates were available. Once confluent, fibroblasts were harvested. For 54 micro titer plates (96 well-MTP) a total of 14.3 million cells (passage eight) were re-suspended in 480 ml medium, corresponding to 100 μl medium with 3,000 cells/well. The remaining cells were distributed in 10 cm cell culture plates (500,000 cells/plate) for propagation. The plates were incubated overnight at 37° C. in an atmosphere with 95% humidity and 5% CO2 to allow attachment of the cells to the culture plate.
MTP medium (243 μl) was added to a well of the microtiter plate. […]
as §3

[4] = test system: Human dermal fibroblasts from Friedreich's Ataxia patients; test: Rescue of BSO-stressed FRDA fibroblasts (Calcein AM viability); conditions: FRDA fibroblasts GM04078, BSO-stressed, read-out: EC50, protection against Friedreich's ataxia
Procedure: as §1
MEM (a medium enriched in amino acids and vitamins, catalog no. 1-31F24-I) and Medium 199 (M199, catalog no. 1-21F22-I) with Earle's Balanced Salts, without phenol red, were purchased from Bioconcept. Fetal Calf Serum was obtained from PAA Laboratories. Basic fibroblast growth factor and epidermal growth factor were purchased from PeproTech. Penicillin-streptomycin-glutamine mix, L-buthionine (S,R)-sulfoximine, (+)-α-tocopherol acetate, decylubiquinone, and insulin from bovine pancreas were purchased from Sigma. Trolox (6-hydroxy-2,5,7,8-tetramethylchromane-2-carboxylic acid) was obtained from Fluka. Idebenone was obtained from Chemo Iberica. Calcein AM was purchased from Molecular Probes. Cell culture medium was made by combining 125 ml M199 EBS, 50 ml Fetal Calf Serum, 100 U/ml penicillin, 100 μg/ml streptomycin, 2 mM glutamine, 10 μg/ml insulin, 10 ng/ml EGF, and 10 ng/ml bFGF; MEM EBS was added to make the volume up to 500 ml. A 10 mM BSO solution was prepared by dissolving 444 mg BSO in 200 ml of medium with subsequent filter-sterilization. During the course of the experiments, this solution was stored at +4° C. […]

SMILES | EC50 ([1]; Homo sapiens, Fibroblast) [µM] | EC50 [2] [µM] | EC50 ([3]; Homo sapiens, Fibroblast) [µM] | EC50 ([4]; Homo sapiens) [µM] | EC50 [1] [µM] | EC50 [3] [µM] | EC50 [4] [µM]
CN1CCc2c(c3ccccc3n2Cc2ccccc2)C1 [5-benzyl-2-methyl-2,3,4,5-tetrahydro-1H-pyrido[4,3-b]indole] | 0.93 | 1.2 | 3.35 | 4.26 |  |  | 
Cc1ccc2c(c1)C1CNCCC1N2 (stereo not drawn) [8-methyl-1,3,4,4a,5,9b-tetrahydro-1H-pyrido[4,3-b]indole] |  |  |  |  | 3.68 | 7 | 4.1
Cc1ccc2c(c1)c1c(n2CCc2ccc(C)nc2)CCN(C)C1 [dimebolin, 2,8-dimethyl-5-(2-(6-methylpyridin-3-yl)ethyl)-2,3,4,5-tetrahydro-1H-pyrido[4,3-b]indole] |  |  | 0.23 | 1.9 |  |  | 
